Data taken from paper PMC7814697 (The Journal of organic chemistry, 2019).
In brackets after ≈: the same amount, converted by molar mass.

Key:
[1] = tested on: Gram-positive bacteria (S. aureus, S. epidermidis, and B. subtilis); experiment: MIC assays summarised across the Gram-positive bacteria; format: cell-based; conditions: MIC without versus with 0.002% polysorbate 80
[2] = tested on: Bacillus subtilis ATCC 6051; experiment: Minimum inhibitory concentration; format: cell-based; conditions: ATCC6051, read-out: MIC, Bacillus subtilis ATCC 6051

## CN[C@H](CC(C)C)C(=O)N[C@H]1C(=O)N[C@@H](CC(N)=O)C(=O)N[C@H]2C(=O)N[C@H]3C(=O)N[C@H](C(=O)N[C@H](C(=O)O)c4cc(O)cc(O)c4-c4cc3ccc4O)[C@H](O)c3ccc(c(Cl)c3)Oc3cc2cc(c3O[C@@H]2O[C@H](CO)[C@@H](O)[C@H](O)[C@H]2O[C@H]2C[C@](C)(N)[C@H](O)[C@H](C)O2)Oc2ccc(cc2Cl)[C@H]1O [vancomycin]
[1]
  decrease in the MIC with 0.002% polysorbate 80: modest two-fold decrease
[2]
  MIC: 0.5 µg/mL (≈ 0.345 µM)
